Experiments:
[1] = Decrease of extractable 5a in stored plasma; type: in vitro ADME; settings: stored human plasma, preliminary investigations
Method: Plasma samples were obtained from patients (n=8) who were scheduled to undergo carotid endarterectomy within 24 h. […] Control plasma samples were obtained from random patients (n=15) attending a general medical clinic and were analyzed 7 days after collection. In a typical procedure, plasma in EDTA (1 ml) was washed with dichloromethane (DCM, 3×1 mL). The combined organic fractions were evaporated in vacuo. The residue was dissolved in methanol (0.9 mL) and a solution of 2,4-dinitrophenyl hydrazine (100 μL, 0.01 M, Lancaster) and 1N HCl in ethanol was added. Nitrogen was bubbled through the solution for 5 min and then the solution was stirred for 2 h. The resultant solution was filtered through a 0.22 μm filter and the filtrate was analyzed by the HPLC assay vide supra.

[2] = tested on: murine macrophage J774A.1; experiment: Modified Boyden chamber migration (chemotaxis) assay; type: cell-based
Method: Chemotaxis and invasion assays were performed using a modified Boyden chamber migration assay. Zwirner et al. (1998) Eur. J. Immunol. 28: 1570-77; Wilkinson (1988) Methods Enzymol. 162: 38-50. Assays were set up on MultiScreen-MIC plates (Millipore, Billerica, Mass., USA) with polyvinylpyrrolidone-free polycarbonate membranes (5 μm pore size). Cells (murine macrophage J774A.1) were washed and resuspended in serum-free DMEM containing 0.2% BSA at 1×10^6 cells/ml. Fifty microliters of cells were added to the upper wells and 150 μl of chemoattractant in DMEM/0.2% BSA were added to the lower wells of the microchamber. Incubation time was for 4 h at 37° C. in an 8% CO2 atmosphere. After swiping cells off the upper side of the membrane, cells on the lower side were visualized by either staining and phase contrast microscopy, or fluorescence. Cells that had adhered to the membrane were stained using a DiffQuik staining kit (Dade Behring, Newark, Del.). Each experiment was performed in triplicate and the numbers of migrating cells were counted in five fields at ×200. Cells harvested with PBS-EDTA for fluorescent labeling were washed two times with PBS, then resuspended in serum-free medium containing calcein AM (5 μM). Cells were incubated for 30 min (37° C., 5% CO2) with gentle intermittent mixing. Calcein-labeled cells were washed twice, and calcein fluorescence ([…]) was measured using a SPECTRAmax™ GEMINI dual-scanning microplate spectrofluorometer. Fluorescence measurements were compared to a standard curve, generated by dilution of cells in PBS/BSA in 100 μl, dispensed into 96-well plates. Fluorescence was quantified as described above.

CD36 = experiment: Scavenger receptor expression by flow cytometry, CD36; type: cell-based, murine
Method: (§1) Cell surface CD36 and SR-A were measured by flow cytometry using CD36 (BD Biosciences Pharmingen, San Diego, Calif.) and CD204 (Serotec, Oxford, UK) specific monoclonal antibodies. See Liao et al. (2000) Arterioscler. Thromb. Vasc. Biol. 20: 1968-75; Hu et al. (1996) Blood 87: 2020-28. Murine macrophage J774A.1 cells were serum-starved overnight in media with 0.5% BSA. Cells (1×10^6) treated with cholesterol ozonation products or cholesterol ozonation product complexed with LDL for specified times were then washed twice with PBS. After harvesting the cells by scraping, they were fixed with 6% paraformaldehyde for 20 min; Cells were then resuspended in PBS containing 2% heat-inactivated FCS, 0.05% NaN3 and appropriate primary antibody, antibody conjugate or isotype control (1:100 dilution) and incubated on ice for 30 min. Expression of either CD36 or SR-A was determined with CD36 (BD Biosciences Pharmingen, San Diego, Calif.) and CD204 (Serotec, Oxford, U.K.) specific monoclonal antibodies, respectively. After washing off the primary antibody, secondary antibodies were added, cells were washed again, then analyzed on a FACS calibur 2 (Becton Dickinson, Sparks, Md.) flow cytometer and analyzed by CellQuant software. Results were expressed as mean fluorescence intensity±standard error of the mean (SEM) of at least duplicate determinations. Significance was determined using a student two-tail t test, with (*) indicating p<0.05, and (**) indicating p<0.01 versus the control.

VCAM-1 (CD106) = experiment: Endothelial adhesion molecule expression by ELISA, VCAM-1; type: cell-based, human; settings: HAAE-1, not complexed with LDL
Method: (§2) Endothelial cell surface adhesion molecule expression was measured by ELISA, using anti-human CD54 (ICAM-1), CD106 (VCAM-1) and CD62E (E-Selectin) antibodies (Leinco Technologies, Inc., St. Louis, Mo.). The ELISA method was modified from previously described procedures.
(§3) Cells were then incubated with antibodies to VCAM-1, E-selectin, or ICAM-1 diluted 1:400 in PBS containing 5% FCS at 37° C. for 30 min. Wells were washed two times with PBS, then incubated with horseradish peroxidase (HRP)-conjugated goat anti-mouse IgG (Southern Biotechnology Associates, Birmingham, Ala., USA) in PBS/5% FCS at 37° C. for 30 min. The wells were washed four times with PBS, then incubated with H2O2/3,3′,5,5′-tetramethyl-benzidine peroxidase substrate (Pierce Chemical, Rockford, Ill., USA) for 30 min in the dark. The reaction was stopped by adding 25 μl of 8 N H2SO4, and the plates read on a microplate reader, blanking on wells stained with only secondary antibody. Each assay was performed in triplicate and the data are reported as the mean±SEM as a percentage of the expression level of the vehicle. To study the effect of cholesterol ozonation product 5a concentration (5-50 μM) on E-selectin expression, the assay was performed in an identical fashion as described above, with each point being the mean±SEM of at least duplicate measurements.

[3] = tested on: Class A scavenger receptor (SR-A); experiment: Scavenger receptor expression by flow cytometry, SR-A; type: cell-based, murine; settings: cultured macrophages, compound in the absence of LDL
Method: as §1, with “After harvesting the cells by scraping, they were fixed with 6% paraformaldehyde for 20 min; Cells were then resuspended in PBS containing 2% heat-inactivated FCS, 0.05% NaN3 and appropriate primary antibody, antibody conjugate or isotype control (1:100 dilution) and incubated on ice for 30 min.” left out

ICAM-1 (CD54) = experiment: Endothelial adhesion molecule expression by ELISA, ICAM-1; type: cell-based, human; settings: HAAE-1, not complexed with LDL
Method: as §2, §3

THP-1 monocytes = experiment: Monocyte morphology changes (differentiation into macrophages); type: cell-based, human; settings: 12.5 or 25 μM, up to 7 days
Method: THP-1 monocytes in suspension were plated in 8-well chambered slides. […] Media containing appropriate treatment compounds was replaced after 4 days. After 4 days treatment, morphologic changes of the adherent cells were assessed by phase-contrast microscopy and photographed using an Olympus Microfire digital camera.

U-937 monocytes cells = experiment: Monocyte adhesion to endothelial cell monolayers by fluorescence spectroscopy; type: cell-based; settings: alone or in complex with LDL
E-selectin (CD62E) = experiment: Endothelial adhesion molecule expression by ELISA, E-selectin; type: cell-based, human; settings: HAAE-1, not complexed with LDL
Method: as §2, §3

J774.1 macrophages = experiment: Lipid-loading assay (foam cell formation); type: cell-based, murine; settings: LDL 100 μg/mL with 4a or 5a (20 μM), 72 h, unactivated J774.1 macrophages
Method: Lipid-loading assay (foam cell formation). J774.1 macrophages were incubated in ATCC-recommended media containing 10% fetal bovine serum under a controlled atmosphere of 5 or 7% CO2 at 37° C., in 8-well chamber slides. […] At termination, cells were washed twice with PBS (pH 7.4). The cells were then fixed with 6% (v/v) paraformaldehyde in PBS for 30 minutes, rinsed with propylene glycol for 2 minutes and lipids were stained with 5 mg/ml Oil Red 0 for 8 minutes. The cells were counterstained with Harris' hematoxylin for 45 seconds, and background staining was removed with 6% paraformaldehyde followed by washing once in PBS and once in tap water. Cover slips were mounted onto the glass slides using glycerol and the slide preparations were examined by light microscopy. The number of lipid-laden cells was scored out of a total of at least 100 cells counted in a single field in each slide, and expressed as a percentage of total cells. Photographs were taken at 100× magnification.

LDL / apoB-100 = LDL / apoB-100 (Homo sapiens, UniProt P04114); experiment: Circular dichroism of LDL secondary structure; settings: LDL 100 μg/ml with 10 μM compound, PBS pH 7.4, 37° C., up to 48 h; normal LDL ~40±2%
Chain of LDL / apoB-100 (P04114 28-4563): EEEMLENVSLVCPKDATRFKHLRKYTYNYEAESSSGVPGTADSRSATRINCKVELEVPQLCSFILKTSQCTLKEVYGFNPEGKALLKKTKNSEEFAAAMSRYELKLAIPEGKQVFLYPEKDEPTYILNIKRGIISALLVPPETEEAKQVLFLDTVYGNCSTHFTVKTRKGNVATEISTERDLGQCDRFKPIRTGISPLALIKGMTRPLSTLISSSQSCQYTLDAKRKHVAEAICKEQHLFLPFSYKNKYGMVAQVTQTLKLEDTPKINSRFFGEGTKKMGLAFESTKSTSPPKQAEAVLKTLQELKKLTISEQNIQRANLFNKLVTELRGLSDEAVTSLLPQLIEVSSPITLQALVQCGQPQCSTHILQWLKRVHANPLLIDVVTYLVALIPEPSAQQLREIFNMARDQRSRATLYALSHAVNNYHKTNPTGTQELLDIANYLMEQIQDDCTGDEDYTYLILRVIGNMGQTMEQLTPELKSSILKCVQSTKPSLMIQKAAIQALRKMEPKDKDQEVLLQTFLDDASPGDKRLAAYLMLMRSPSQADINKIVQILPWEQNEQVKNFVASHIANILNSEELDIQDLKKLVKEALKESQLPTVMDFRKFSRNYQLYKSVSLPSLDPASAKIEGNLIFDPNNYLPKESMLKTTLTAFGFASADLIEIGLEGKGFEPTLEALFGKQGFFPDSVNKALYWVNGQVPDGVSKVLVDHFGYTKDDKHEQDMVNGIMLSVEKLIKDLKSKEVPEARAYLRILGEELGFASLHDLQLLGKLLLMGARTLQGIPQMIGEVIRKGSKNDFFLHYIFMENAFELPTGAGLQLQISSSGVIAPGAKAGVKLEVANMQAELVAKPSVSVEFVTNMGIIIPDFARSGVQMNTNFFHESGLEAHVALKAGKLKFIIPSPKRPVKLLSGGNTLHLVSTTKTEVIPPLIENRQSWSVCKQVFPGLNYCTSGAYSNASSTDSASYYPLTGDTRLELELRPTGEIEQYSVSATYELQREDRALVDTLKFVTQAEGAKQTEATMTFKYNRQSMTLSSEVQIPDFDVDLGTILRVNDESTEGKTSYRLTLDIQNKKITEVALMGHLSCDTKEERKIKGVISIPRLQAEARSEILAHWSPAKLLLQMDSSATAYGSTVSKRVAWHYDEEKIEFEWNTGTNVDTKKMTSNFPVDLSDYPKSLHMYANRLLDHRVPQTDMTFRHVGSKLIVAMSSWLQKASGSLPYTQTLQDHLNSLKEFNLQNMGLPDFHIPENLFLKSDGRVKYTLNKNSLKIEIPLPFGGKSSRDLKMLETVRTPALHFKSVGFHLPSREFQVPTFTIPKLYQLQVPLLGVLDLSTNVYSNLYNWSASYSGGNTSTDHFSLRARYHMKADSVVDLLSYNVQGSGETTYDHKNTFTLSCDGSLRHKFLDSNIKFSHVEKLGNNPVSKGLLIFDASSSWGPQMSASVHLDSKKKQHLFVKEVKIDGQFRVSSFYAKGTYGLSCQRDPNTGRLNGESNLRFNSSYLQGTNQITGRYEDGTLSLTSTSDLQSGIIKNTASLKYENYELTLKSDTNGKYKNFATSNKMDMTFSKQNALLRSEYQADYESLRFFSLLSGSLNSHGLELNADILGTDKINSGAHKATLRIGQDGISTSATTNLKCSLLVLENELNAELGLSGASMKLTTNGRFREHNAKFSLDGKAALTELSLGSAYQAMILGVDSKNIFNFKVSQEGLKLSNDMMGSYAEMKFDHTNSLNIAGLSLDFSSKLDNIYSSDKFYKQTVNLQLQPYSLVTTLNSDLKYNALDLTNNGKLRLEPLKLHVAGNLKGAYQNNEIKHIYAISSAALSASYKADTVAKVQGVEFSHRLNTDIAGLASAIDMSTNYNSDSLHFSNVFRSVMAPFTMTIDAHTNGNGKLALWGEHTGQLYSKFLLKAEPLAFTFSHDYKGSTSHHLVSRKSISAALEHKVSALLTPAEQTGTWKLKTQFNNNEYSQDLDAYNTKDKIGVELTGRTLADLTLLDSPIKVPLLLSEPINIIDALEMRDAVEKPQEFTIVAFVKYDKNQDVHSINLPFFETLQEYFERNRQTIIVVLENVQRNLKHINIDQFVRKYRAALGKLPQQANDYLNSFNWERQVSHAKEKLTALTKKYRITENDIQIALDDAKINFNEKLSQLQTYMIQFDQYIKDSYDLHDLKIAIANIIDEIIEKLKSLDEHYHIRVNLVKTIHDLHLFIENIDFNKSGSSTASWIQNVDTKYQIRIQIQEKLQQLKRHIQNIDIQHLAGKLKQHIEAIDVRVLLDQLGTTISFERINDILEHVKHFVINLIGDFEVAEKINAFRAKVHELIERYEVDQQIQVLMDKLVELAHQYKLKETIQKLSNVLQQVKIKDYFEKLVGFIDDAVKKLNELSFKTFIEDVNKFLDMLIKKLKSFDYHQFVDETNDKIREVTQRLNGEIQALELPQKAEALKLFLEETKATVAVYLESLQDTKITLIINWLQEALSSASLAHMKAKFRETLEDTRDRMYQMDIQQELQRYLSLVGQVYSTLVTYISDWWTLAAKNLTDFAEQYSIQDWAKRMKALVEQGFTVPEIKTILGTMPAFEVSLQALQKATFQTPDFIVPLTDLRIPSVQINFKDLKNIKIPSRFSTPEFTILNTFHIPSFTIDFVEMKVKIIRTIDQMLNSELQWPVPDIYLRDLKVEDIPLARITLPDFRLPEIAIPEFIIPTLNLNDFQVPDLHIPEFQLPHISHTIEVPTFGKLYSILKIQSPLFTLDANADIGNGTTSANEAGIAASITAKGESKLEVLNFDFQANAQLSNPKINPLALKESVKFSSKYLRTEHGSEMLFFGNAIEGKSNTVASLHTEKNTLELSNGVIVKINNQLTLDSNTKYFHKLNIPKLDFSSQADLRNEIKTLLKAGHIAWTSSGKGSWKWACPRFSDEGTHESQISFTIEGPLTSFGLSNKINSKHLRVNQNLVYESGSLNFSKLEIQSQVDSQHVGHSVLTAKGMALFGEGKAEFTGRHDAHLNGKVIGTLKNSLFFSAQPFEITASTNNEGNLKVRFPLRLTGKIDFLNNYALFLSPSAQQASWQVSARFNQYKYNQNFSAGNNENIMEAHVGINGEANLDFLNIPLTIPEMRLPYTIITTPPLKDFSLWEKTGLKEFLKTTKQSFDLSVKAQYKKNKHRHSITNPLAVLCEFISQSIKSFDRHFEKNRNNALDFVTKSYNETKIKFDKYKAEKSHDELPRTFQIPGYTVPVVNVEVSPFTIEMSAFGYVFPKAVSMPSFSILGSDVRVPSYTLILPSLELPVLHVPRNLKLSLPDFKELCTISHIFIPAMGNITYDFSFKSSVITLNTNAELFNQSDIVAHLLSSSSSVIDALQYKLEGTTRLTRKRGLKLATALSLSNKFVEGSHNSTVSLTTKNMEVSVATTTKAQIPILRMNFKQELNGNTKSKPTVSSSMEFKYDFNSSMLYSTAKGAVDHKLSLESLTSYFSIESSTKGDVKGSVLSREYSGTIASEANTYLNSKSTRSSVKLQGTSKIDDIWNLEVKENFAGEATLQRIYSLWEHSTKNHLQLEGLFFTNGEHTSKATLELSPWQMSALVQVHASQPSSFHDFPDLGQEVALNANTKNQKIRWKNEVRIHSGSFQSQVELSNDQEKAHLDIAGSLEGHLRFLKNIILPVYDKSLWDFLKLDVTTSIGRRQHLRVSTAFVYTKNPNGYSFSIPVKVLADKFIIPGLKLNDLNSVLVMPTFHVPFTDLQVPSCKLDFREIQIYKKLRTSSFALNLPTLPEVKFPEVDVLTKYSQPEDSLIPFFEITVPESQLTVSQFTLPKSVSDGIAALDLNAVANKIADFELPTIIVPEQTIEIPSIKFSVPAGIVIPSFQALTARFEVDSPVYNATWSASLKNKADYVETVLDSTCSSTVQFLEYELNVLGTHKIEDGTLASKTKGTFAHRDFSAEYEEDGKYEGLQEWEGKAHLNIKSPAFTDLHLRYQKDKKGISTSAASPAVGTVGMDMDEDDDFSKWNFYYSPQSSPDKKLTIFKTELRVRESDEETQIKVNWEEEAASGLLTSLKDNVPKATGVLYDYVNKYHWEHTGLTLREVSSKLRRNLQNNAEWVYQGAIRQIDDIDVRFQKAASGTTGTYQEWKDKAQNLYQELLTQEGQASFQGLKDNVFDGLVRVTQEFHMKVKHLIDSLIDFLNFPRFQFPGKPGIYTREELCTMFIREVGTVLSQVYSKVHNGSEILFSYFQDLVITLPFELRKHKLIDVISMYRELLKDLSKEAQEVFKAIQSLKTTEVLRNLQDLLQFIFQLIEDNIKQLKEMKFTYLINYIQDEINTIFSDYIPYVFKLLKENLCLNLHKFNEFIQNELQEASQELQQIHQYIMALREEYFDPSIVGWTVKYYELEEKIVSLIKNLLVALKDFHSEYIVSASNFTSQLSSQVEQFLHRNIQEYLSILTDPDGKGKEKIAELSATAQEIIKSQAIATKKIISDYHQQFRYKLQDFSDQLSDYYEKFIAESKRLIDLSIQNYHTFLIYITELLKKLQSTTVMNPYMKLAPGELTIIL
Method: Spectra were recorded in the peptidic range (200-260 nm). To increase the signal-to-noise ratio, multiple spectra (three) were averaged for each measurement. The deconvolution of the molar elipticity spectra for each measurement was performed using the CDPro suite of software (by Narasimha Sreerama from Colorado State University) on a Dell PC.

neuronal cell lines = experiment: Cytotoxicity towards neuronal cell lines (similar procedures); type: cell-based
[4] = tested on: T-lymphocyte cell line (Jurkat E6.1); experiment: LDH release cytotoxicity assay, Jurkat; type: cell-based; settings: concentration range of FIG. 6B (0-100 μM)
Method: (§4) Cytotoxicity assays. WI-L2 human B-lymphocyte line, HAAE-1 human abdominal aortic endothelial line, MH-S murine alveolar macrophage line, and J774A.1 murine tissue macrophage line were obtained from the ATCC. Human aortic endothelial cells (HAEC) and human vascular smooth muscle cells (VSMS) were obtained from Cambrex Bio Science. Jurkat E6-1T-lymphocytes were kindly provided by Dr. J. Kaye (The Scripps Research Institute). Cells were cultured in ATCC-recommended media with 10% fetal calf serum. Cells were incubated in a controlled atmosphere at 37° C., with 5 or 7% CO2. For lactate dehydrogenase (LDH) release assays, adherent cells were harvested either by addition of 0.05% trypsin/EDTA or by scraping. The cells obtained were seeded onto 96-well microtiter plates (25,000 cells/well) and allowed to recover for 24-48 h. […] Cytotoxicity was then determined by measuring lactate dehydrogenase (LDH) release from cells in culture. […] 100% Cytotoxicity was defined as the maximum amount of LDH released by dead cells as shown by trypan blue exclusion, or the highest amount of LDH detected upon lysis of cells by 0.9% Triton X-100. The IC50 values were determined by comparison of the raw duplicate data for concentration versus cytotoxicity (%) to non-linear regression analysis (Hill plot) using Graphpad v3.0 software for Macintosh. […]

[5] = tested on: WI-L2 human B-lymphocyte line; experiment: LDH release cytotoxicity assay, WI-L2; type: cell-based; settings: B-cell (WI-L2) cell line, concentration range of FIG. 6A (0-100 μM)
Method: as §4

Compound	decrease of the amount of 5a that can be extracted from plasma [1]	recruitment (migration) of macrophages ([2]; 0-25 μM, 4 h, P<0.001)	migration of macrophages ([2]; compound co-incubated with BSA)	migration of macrophages ([2]; compound complexed with native LDL (100 μg/ml))	CD36 expression (CD36; J774A.1, 25 μM compound complexed with LDL (100 μg/ml protein), 6 h)	CD36 expression (CD36; cultured macrophages, compound in the absence of LDL)	integrin expression (VCAM-1) (VCAM-1 (CD106))	SR-A expression [3]	integrin expression (ICAM-1) (ICAM-1 (CD54))	THP-1 monocyte differentiation into macrophages (adherence, morphology) (THP-1 monocytes)	adhesion of U-937 monocytes to endothelial cell monolayers, above that of LDL alone (U-937 monocytes cells)	selectin (E-selectin) expression (E-selectin (CD62E))	lipid-loading of macrophages / foam cell formation (J774.1 macrophages)	a helical structure of LDL (LDL / apoB-100) [%]	cytotoxicity towards neuronal cell lines (neuronal cell lines)	cytotoxicity [4]	cytotoxicity [5]
CC(C)CCC[C@@H](C)[C@H]1CCC2C3C(CC[C@@]21C)[C@@]1(C)CC[C@H](O)C[C@@]1(O)[C@@H]3C=O (stereo partly drawn) [5a, 3β-Hydroxy-5β-hydroxy-B-norcholestane-6βcarboxaldehyde]	about 5 % per day	dose-dependent recruitment of macrophages	macrophage migration still occurs	no significant migration	little or no effect	did not increase expression of either receptor	no effects	did not increase expression of either receptor	no effects	displayed hypertrophy, developed cytoplasmic vacuoles, and formed extended processes, all characteristic of mature macrophages	neither ozonolysis product 4a nor 5a, alone or in complex with LDL, nor CuOx-LDL significantly increased adhesion	no effects	began lipid-loading and foam cells began to appear	~20±2	cytotoxic		
CC(C)CCC[C@@H](C)[C@H]1CC[C@H]2[C@@H]3CC=C4C[C@@H](O)CC[C@]4(C)[C@H]3CC[C@]12C [compound 3, cholesterol, reference compound]							no effects		no effects	neither became adherent nor developed the aforementioned morphological changes		no effects				No cytotoxicity	No cytotoxicity

Reference: patent US20100003711A1, “Methods to identify therapeutic agents” (THE SCRIPPS RESEARCH INSTITUTE, priority 2005, published 2010)
